# Laboratory results as given in ChEMBL document CHEMBL1201862, “PubChem BioAssay data set” (2004).
#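 Five concentrations, 48 hours, 96-well plates. GI50: concentration for 50% inhibition of growth.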 Activity calls are given as the source filed them. Cut-off read from the data, not from the text of the source: active = GI50 up to about 1.1 µM and inactive = higher.
# Tests used:
# Test in all cases: NCI-60 cell line screen, 48 h
# SF-268 = test system: SF-268
# A498 = test system: A498
# HOP-62 = test system: HOP-62
# KM12 = test system: KM12
# OVCAR-8 = test system: OVCAR-8
# SK-MEL-5 = test system: SK-MEL-5
# SN12C = test system: SN12C
# UACC-257 = test system: UACC-257
# CAKI-1 = test system: CAKI-1
# RPMI-8226 = test system: RPMI-8226
# OVCAR-3 = test system: OVCAR-3
# TK-10 = test system: TK-10
# HCC 2998 = test system: HCC 2998
# ACHN = test system: ACHN
# UO-31 = test system: UO-31
# BT-549 = test system: BT-549
# NCI-H23 = test system: NCI-H23
# OVCAR-5 = test system: OVCAR-5
# LOX IMVI = test system: LOX IMVI
# MOLT-4 = test system: MOLT-4
SMILES,GI50 (SF-268),GI50 (A498),GI50 (HOP-62),GI50 (KM12),GI50 (OVCAR-8),GI50 (SK-MEL-5),GI50 (SN12C),GI50 (UACC-257),GI50 (CAKI-1),GI50 (RPMI-8226),GI50 (OVCAR-3),GI50 (TK-10),GI50 (HCC 2998),GI50 (ACHN),GI50 (UO-31),GI50 (BT-549),GI50 (NCI-H23),GI50 (OVCAR-5),GI50 (LOX IMVI),GI50 (MOLT-4)
OCCN(CO)CO,> 100 µM (inactive),> 100 µM (inactive),> 100 µM (inactive),> 100 µM (inactive),> 100 µM (inactive),> 100 µM (inactive),> 100 µM (inactive),> 100 µM (inactive),> 100 µM (inactive),86.5 µM (inactive),> 100 µM (inactive),> 100 µM (inactive),> 100 µM (inactive),> 100 µM (inactive),> 100 µM (inactive),> 100 µM (inactive),> 100 µM (inactive),–,–,–
Cc1ccc2c(=O)c3c(O)c4c(cc3n(C)c2c1)OC(C)(C)C=C4,> 10 µM (inactive),> 10 µM (inactive),> 10 µM (inactive),> 10 µM (inactive),> 10 µM (inactive),> 10 µM (inactive),> 10 µM (inactive),> 10 µM (inactive),> 10 µM (inactive),> 10 µM (inactive),> 10 µM (inactive),> 10 µM (inactive),> 10 µM (inactive),> 10 µM (inactive),–,> 10 µM (inactive),> 10 µM (inactive),> 10 µM (inactive),> 10 µM (inactive),> 10 µM (inactive)
CC(=O)NC1C(OCc2ccccc2)OC(CO)C(O)C1OCC(=O)N[C@@H](C)C(=O)N[C@H](CCC(=O)NCCCNc1c2ccccc2nc2cccc([N+](=O)[O-])c12)C(N)=O (stereo partly specified),–,0.0547 µM (active),0.08 µM (active),0.037 µM (active),0.0746 µM (active),0.0148 µM (active),0.0397 µM (active),0.0448 µM (active),0.0338 µM (active),0.0411 µM (active),0.0678 µM (active),0.0253 µM (active),0.0142 µM (active),0.0182 µM (active),0.123 µM (active),0.0845 µM (active),0.0248 µM (active),0.0718 µM (active),0.0439 µM (active),0.0269 µM (active)
COc1ccc([C@]23CCC4(OCC(C)(C)CO4)[C@H]4CON(O[C@H](O[C@@H]5CCCCC5C(C)(C)c5ccccc5)C2)[C@@H]43)cc1OC (stereo partly specified),–,48.1 µM (inactive),97.3 µM (inactive),29.6 µM (inactive),60 µM (inactive),22.2 µM (inactive),61.1 µM (inactive),36.6 µM (inactive),13.6 µM (inactive),26.9 µM (inactive),34 µM (inactive),78.5 µM (inactive),> 100 µM (inactive),–,35.8 µM (inactive),69 µM (inactive),47.6 µM (inactive),89.1 µM (inactive),57.5 µM (inactive),17.7 µM (inactive)
CC1=CC(=O)/C(=C/Nc2nc(-c3ccc([N+](=O)[O-])cc3)cs2)C(=O)O1,> 100 µM (inactive),80 µM (inactive),> 100 µM (inactive),> 100 µM (inactive),> 100 µM (inactive),> 100 µM (inactive),> 100 µM (inactive),> 100 µM (inactive),> 100 µM (inactive),> 100 µM (inactive),–,> 100 µM (inactive),> 100 µM (inactive),> 100 µM (inactive),> 100 µM (inactive),> 100 µM (inactive),> 100 µM (inactive),> 100 µM (inactive),> 100 µM (inactive),61.4 µM (inactive)
CN(C)C(=S)SCC(=O)Nc1ccccc1,> 100 µM (inactive),> 100 µM (inactive),> 100 µM (inactive),> 100 µM (inactive),> 100 µM (inactive),> 100 µM (inactive),> 100 µM (inactive),> 100 µM (inactive),> 100 µM (inactive),94.2 µM (inactive),> 100 µM (inactive),–,> 100 µM (inactive),> 100 µM (inactive),> 100 µM (inactive),> 100 µM (inactive),> 100 µM (inactive),> 100 µM (inactive),> 100 µM (inactive),> 100 µM (inactive)
O=c1[nH]nc(-c2ccccc2)c2[nH]c3c(c12)Cc1ccccc1-3,2.87 µM (inactive),2.35 µM (inactive),9.38 µM (inactive),< 0.0306 µM (active),6.61 µM (inactive),0.115 µM (active),2.32 µM (inactive),–,13.8 µM (inactive),2.37 µM (inactive),0.914 µM (active),7.59 µM (inactive),6.82 µM (inactive),6.18 µM (inactive),5.41 µM (inactive),21.7 µM (inactive),> 26.5 µM (inactive),7.16 µM (inactive),6.11 µM (inactive),1.19 µM (inactive)
C[C@]12CCC(=O)C=C1CC[C@@H]1[C@@H]2CC[C@]2(C)C(=O)/C(=C\c3ccccc3)C[C@@H]12,–,15.6 µM (inactive),38.6 µM (inactive),20.4 µM (inactive),21.7 µM (inactive),14.2 µM (inactive),15.1 µM (inactive),23.1 µM (inactive),43.5 µM (inactive),10.9 µM (inactive),22.1 µM (inactive),44.7 µM (inactive),17.4 µM (inactive),33.3 µM (inactive),25.7 µM (inactive),25.8 µM (inactive),14.2 µM (inactive),50 µM (inactive),21.2 µM (inactive),14 µM (inactive)
COc1cccc(N2C(=O)C3c4[nH]c5ccc(C)cc5c4C4CCC(C)CC4C3C2=O)c1 (stereo unspecified),47.2 µM (inactive),49 µM (inactive),1.4 µM (inactive),–,> 100 µM (inactive),> 100 µM (inactive),> 100 µM (inactive),> 100 µM (inactive),39.5 µM (inactive),> 100 µM (inactive),> 100 µM (inactive),36.1 µM (inactive),> 100 µM (inactive),> 100 µM (inactive),> 100 µM (inactive),76 µM (inactive),> 100 µM (inactive),> 100 µM (inactive),> 100 µM (inactive),> 10 µM (inactive)
c1ccc2c(c1)sc1c3cnccc3ccc21,> 100 µM (inactive),> 100 µM (inactive),> 100 µM (inactive),46.6 µM (inactive),–,> 100 µM (inactive),> 100 µM (inactive),56.6 µM (inactive),43.3 µM (inactive),0.0697 µM (active),> 100 µM (inactive),51.2 µM (inactive),> 100 µM (inactive),90.4 µM (inactive),> 100 µM (inactive),> 100 µM (inactive),> 100 µM (inactive),> 100 µM (inactive),71.6 µM (inactive),19.5 µM (inactive)
CC(C)c1ccc(/C=C2\N=C(c3ccc([N+](=O)[O-])cc3)OC2=O)cc1,> 100 µM (inactive),> 100 µM (inactive),> 100 µM (inactive),> 100 µM (inactive),> 100 µM (inactive),> 100 µM (inactive),> 100 µM (inactive),> 100 µM (inactive),> 100 µM (inactive),> 100 µM (inactive),> 100 µM (inactive),> 100 µM (inactive),> 100 µM (inactive),> 100 µM (inactive),–,> 100 µM (inactive),> 100 µM (inactive),> 100 µM (inactive),> 100 µM (inactive),> 100 µM (inactive)
N#CCCNCCN(CCN(C(=O)Nc1ccccc1)c1ccccc1)C(=O)Nc1ccccc1,63.5 µM (inactive),51.2 µM (inactive),65.9 µM (inactive),–,59.4 µM (inactive),19.9 µM (inactive),78.9 µM (inactive),15.7 µM (inactive),–,57 µM (inactive),–,29.5 µM (inactive),16.1 µM (inactive),47.2 µM (inactive),26.4 µM (inactive),38.4 µM (inactive),33.2 µM (inactive),64.6 µM (inactive),37.6 µM (inactive),39.4 µM (inactive)
O=C(O)C1(Cc2ccc3c(c2)CCC3)Cc2ccccc2C1=O (stereo unspecified),63.8 µM (inactive),42.5 µM (inactive),57.8 µM (inactive),39.7 µM (inactive),83 µM (inactive),79.4 µM (inactive),63.7 µM (inactive),> 100 µM (inactive),–,35.8 µM (inactive),54 µM (inactive),> 100 µM (inactive),43.5 µM (inactive),45.4 µM (inactive),56 µM (inactive),37.8 µM (inactive),46.2 µM (inactive),> 100 µM (inactive),78 µM (inactive),91.4 µM (inactive)
Cn1cc(C[C@@H](N)C(=O)O)c2ccccc21 [INDOXIMOD],> 100 µM (inactive),> 100 µM (inactive),> 100 µM (inactive),> 100 µM (inactive),> 100 µM (inactive),–,> 100 µM (inactive),> 100 µM (inactive),> 100 µM (inactive),> 100 µM (inactive),> 100 µM (inactive),> 100 µM (inactive),> 100 µM (inactive),> 100 µM (inactive),> 100 µM (inactive),> 100 µM (inactive),> 100 µM (inactive),> 100 µM (inactive),> 100 µM (inactive),> 100 µM (inactive)
